These results are taken from patent US4289776A, “Xanthine derivatives” (Hoechst Aktiengesellschaft, priority 1973, dated 1981).

In data set [1] the test system is mouse. Put plainly: Toxicity in the mouse (LD50). Particulars: in vivo, ip. On the procedure:
(§1) The toxicity was determined as LD50 --range or as LD50 according to Litchfield and Wilcoxon ("J. Pharmacol. exp. Ther." 97 (1949), page 399) in the mouse.

Data set [2] is described as follows: Toxicity in the mouse (LD50). Particulars: in vivo. As for the experimental part:
as §1

The test system of data set [3] is cerebral blood circulation. Briefly: Cerebral blood circulation after intraduodenal administration to narcotized cats. The class given is in vivo, cat.
The subject of a further data set is cerebral blood perfusion. Briefly: Cerebral blood perfusion by fluvography at the cat (i.v.). The class given is in vivo. As for the experimental part:
(§2) Animal tests were carried out with various oxoalkylxanthine derivatives, in which the toxicity in the mouse, the increase of cerebral and muscular blood perfusion at the cat and the fibrinolytic effect in vitro in the Hanging-Clot-test were measured. Furthermore the broncholytic effect of various compounds was tested.
(§3) 1. Cerebral and muscular blood perfusion by fluvography
(§4) These tests were performed at the cat according to K. Popendiker, I. Boksay and V. Bollmann ("Arzneimittel Forschung" vol. 21 (1971), page 1160).
(§5) The values obtained in the mentioned test 1 are given as Δλ and as half-life values in Table 2 and the results of tests 2 to 5 are enumerated in Table 3. In Table 2 Δλ is the change of blood perfusion.

Data set [4] has as its system bronchospasm against acetylcholine. Put plainly: Broncholytic effect at the narcotized guinea-pig, bronchospasm by acetylcholine. Particulars: Cavia porcellus, iv, 2 min, 2 min. i.p.; for change in vivo at 3 mg/kg: 3 mg/kg i.v.; for change in vivo at 10 mg/kg: 10 mg/kg i.v. It counts as in vivo. On the procedure:
(§6) 2. Broncholytic effect at the narcotized guinea-pig
(§7) This test was performed according to H. Konsett and R. Rossler ("Archiv exp. Path. Pharmak." vol. 195 (1940), page 71).

The test system of data set [5] is bronchospasm against histamine. Briefly: Broncholytic effect at the narcotized guinea-pig, bronchospasm by histamine. It counts as in vivo. Particulars: for change in vivo at 3 mg/kg: 3 mg/kg i.v.; for change in vivo at 10 mg/kg: 10 mg/kg i.v.; for Broncholytic effect against histamine compared with sample 8: guinea pig, in vivo. On the procedure:
as §6, §7

Another data set relates to muscular blood perfusion. Briefly: Muscular blood perfusion by fluvography at the cat (i.v.). It counts as in vivo. As for the experimental part: as §2, §3, §4, §5
A further data set has as its system isolated trancheal chain. Put plainly: Broncholytic effect at the isolated tracheal chain (isoprenaline reaction). On the procedure: 3. Broncholytic effect at the isolated trancheal chain
This test was performed according to J. C. Castillo and E. J. de Beer ("J. Pharm. Ther." vol. 90 (1947), page 104).

In a further data set the test system is human blood. Put plainly: Fibrinolytic effect in vitro, Hanging-Clot-test. It counts as biochemical. Particulars: for Minimum concentration for complete lysis / Minimum concentration for partial lysis: human blood. On the procedure:
This effect was measured by the Hanging-Clot-test according to K. N. von Kaulla ("Journ. med. Chem." vol. 8 (1965), page 164) in using human blood. The incubation time was 24 or 48 hours.

The nature of another data set: Solubility. Particulars: for solubility: water, 25° C. The class given is physicochemical.
The subject of data set [6] is bronchospasm against acrotonine. Put plainly: Broncholytic effect at the narcotized guinea-pig, bronchospasm by acrotonine (so in the source). It counts as in vivo. Particulars: 2 min. i.p. As for the experimental part: as §6, §7
The subject of the next data set is blood vascular system. Particulars: known compounds; cited from earlier work.
The subject of data set [7] is mouse. Particulars: known compounds; cited from earlier work.
Where [8] appears, read: Cavia porcellus, iv, 2 min, 2 min. i.p.

Converted amounts (≈) assume the structure as drawn. Where two headings read alike, the source gives them in different places.

On to `CC(=O)CCCCn1cnc2c1c(=O)[nH]c(=O)n2C` [Example 11, 3-methyl-7-(5-oxohexyl)-xanthine], for which, in the data set with mouse [1], the “Compatibility compared with ethylene-diamine-theophylline” value is “much more compatible”. Also, the LD50 in data set [2] (ip, mice, intraperitoneally, read-out: LD50 -value for mice) is 1000 to 1500 mg/kg. In data set [3], the “Increase in cerebral blood circulation compared with ethylene-diamine-theophylline” value is given as “by several times superior”; the “Increase in the cerebral blood circulation” value is “significant and permanent increase in the cerebral blood circulation”.

For `CCCn1cnc2c1c(=O)n(CCCCC(C)=O)c(=O)n2C` [Sample 4, 1-(5-Oxohexyl)-3-methyl-7-propyl-xanthine], the “Cerebral blood perfusion half-life” value in the data set on cerebral blood perfusion (1 mg/kg i.v.) came to 4.0 min; in the data set with cerebral blood perfusion (2 mg/kg i.v.), 5.8 min; in the data set on cerebral blood perfusion (5 mg/kg i.v.), 14.7 min. In addition, the “Cerebral blood perfusion Δλ (change of blood perfusion)” value was “+4.33” with cerebral blood perfusion (1 mg/kg i.v.), “+6.33” in the data set with cerebral blood perfusion (2 mg/kg i.v.) and “+13.00” in the data set with cerebral blood perfusion (5 mg/kg i.v.). Moreover, the “Cerebral blood perfusion compared with sample 8 (in words)” value in the data set on cerebral blood perfusion (i.v.) is on record as “longer cerebral blood perfusion”. Moreover, the “Cerebral blood perfusion relative to comparison sample 8” value in the data set with cerebral blood perfusion (i.v., all dose values, corresponding dosages) is “more than 10 times”. Also, the change in vivo at 3 mg/kg in data set [4] was -40%; in data set [5] (setting [8]), -75%. Further, the results for the change in vivo at 10 mg/kg in data set [4] and in data set [5] (setting [8]) were -75% and -86%, respectively. Also, in [5], the “Broncholytic effect against histamine compared with sample 8” value is recorded as “improved broncholytic effect against histamine”. Besides, the “Muscular blood perfusion half-life” value in the data set on muscular blood perfusion (1 mg/kg i.v.) is 3.70 min; in the data set with muscular blood perfusion (2 mg/kg i.v.), 0.80 min; in the data set on muscular blood perfusion (5 mg/kg i.v.), 3.70 min. Further, the “Muscular blood perfusion Δλ (change of blood perfusion)” value in the data set on muscular blood perfusion (1 mg/kg i.v.) is “+0.13”; in the data set on muscular blood perfusion (2 mg/kg i.v.), “+0.07”; with muscular blood perfusion (5 mg/kg i.v.), “+0.08”. Besides, the “Muscular blood perfusion compared with sample 8 (in words)” value in the data set with muscular blood perfusion (i.v., corresponding dosages) is “stronger muscular blood perfusion”. The “Inhibition of isoprenaline reaction in %” value was found to be 94% in the data set on isolated trancheal chain (concentration 3 × 10^-5), 2% in the data set with isolated trancheal chain (concentration 3 × 10^-6), 100% in the data set on isolated trancheal chain (concentration 10^-4) and 20% in the data set on isolated trancheal chain (concentration 10^-5). Further, the LD50 in data set [2] (iv, read-out: Toxicity (LD50)) came to 107 mg/kg; in data set [2] (po, per os, read-out: Toxicity (LD50)), 860 mg/kg. The “Fibrinolytic effect relative to comparison sample 8” value in the data set with human blood is recorded as “two times as strong”. In addition, the “Minimum concentration for complete lysis” value was found to be 50 mmol with human blood (24 hours incubation) and 25 mmol with human blood (48 hours incubation (bracket)). Moreover, the “Solubility in dimethyl sulphoxide” value in “Solubility” was “over 10%”. In addition, in “Solubility”, the Solubility in ethanol entry is listed as “over 10%”. In “Solubility”, this compound came in with a solubility of approximately 32 mg/mL (≈ 104 mM). Moreover, the “Change of the bronchospasm in % against acrotonine” value in data set [6] (3 mg/kg i.v.) is listed as -83%; in data set [6] (10 mg/kg i.v.), -93%.

With `CCn1cnc2c1c(=O)n(CCCCC(C)=O)c(=O)n2C` [Sample 7, 1-(5-oxohexyl)-3-methyl-7-ethyl-xanthine], the results for the “Cerebral blood perfusion half-life” value with cerebral blood perfusion (1 mg/kg i.v.), in the data set on cerebral blood perfusion (2 mg/kg i.v.) and in the data set on cerebral blood perfusion (5 mg/kg i.v.) were 1.5 min, 5.0 min and 8.2 min, respectively. For the same compound, the results for the “Cerebral blood perfusion relative to comparison sample 8” value with cerebral blood perfusion (1 mg/kg i.v.) and with cerebral blood perfusion (5 mg/kg i.v.) were “about five times higher” and “about nine times higher”, respectively. The “Cerebral blood perfusion Δλ (change of blood perfusion)” value in the data set on cerebral blood perfusion (1 mg/kg i.v.) is “+2.46”; in the data set with cerebral blood perfusion (2 mg/kg i.v.), “+5.17”; in the data set on cerebral blood perfusion (5 mg/kg i.v.) it was “+8.07”. The “Half-life (cerebral) relative to comparison sample 8” value in the data set on cerebral blood perfusion (1 mg/kg i.v.) is given as 1.5 times; with cerebral blood perfusion (5 mg/kg i.v.), “more than three times longer”. Further, the change in vivo at 3 mg/kg in [4] is -28%; in data set [5] (setting [8]), -47%. The change in vivo at 10 mg/kg in data set [4] is -96%; in [5] (setting [8]) it was -90%. The “Broncholytic effect against histamine compared with sample 8” value in [5] is “improved broncholytic effect against histamine”. Moreover, the “Muscular blood perfusion half-life” value worked out at 0.40 min in the data set on muscular blood perfusion (1 mg/kg i.v.), 5.00 min in the data set on muscular blood perfusion (2 mg/kg i.v.) and 0.50 min in the data set on muscular blood perfusion (5 mg/kg i.v.). The “Muscular blood perfusion Δλ (change of blood perfusion)” value with muscular blood perfusion (1 mg/kg i.v.) is “+0.22”; in the data set on muscular blood perfusion (2 mg/kg i.v.), “+0.10”; in the data set with muscular blood perfusion (5 mg/kg i.v.), “+0.20”. Moreover, in [2] (ip, read-out: Toxicity (LD50-range or LD50)), the LD50 fell in the range of 250 to 500 mg/kg. In the data set with human blood, the “Fibrinolytic effect relative to comparison sample 8” value is “two times as strong”. Further, the “Minimum concentration for partial lysis” value with human blood (24 hours incubation) worked out at 50 mmol; in the data set on human blood (48 hours incubation (bracket)), 25 mmol. The compound also registered a solubility in the data set “Solubility” of approximately 20 mg/mL (≈ 68.4 mM). The “Change of the bronchospasm in % against acrotonine” value is on record as -42% in data set [6] (3 mg/kg i.v.) and -81% in data set [6] (10 mg/kg i.v.).

As to `CC(=O)CCCCn1c(=O)c2c(ncn2C)n(C)c1=O` [Sample 8, 1-(5-Oxohexyl)-3,7-dimethylxanthine, reference compound], the “Cerebral blood perfusion half-life” value was found to be 0.9 min in the data set with cerebral blood perfusion (1 mg/kg i.v.), 2.4 min with cerebral blood perfusion (5 mg/kg i.v.) and 8.6 min in the data set on cerebral blood perfusion (10 mg/kg i.v.). The “Cerebral blood perfusion Δλ (change of blood perfusion)” value is listed as “+0.44” in the data set with cerebral blood perfusion (1 mg/kg i.v.), “+0.86” in the data set on cerebral blood perfusion (5 mg/kg i.v.) and “+1.15” in the data set with cerebral blood perfusion (10 mg/kg i.v.). Also, the change in vivo at 3 mg/kg is -15% in data set [4] and -4% in data set [5] (setting [8]). The change in vivo at 10 mg/kg is -41% in data set [4] and -83% in [5] (setting [8]). Moreover, the change in vivo at 20 mg/kg in [4] (20 mg/kg i.v.) was -72%; in data set [5] (Cavia porcellus, iv, 2 min, 20 mg/kg i.v., 2 min. i.p.) it was -100%. In addition, the change in vivo at 5 mg/kg in data set [5] (Cavia porcellus, iv, 2 min, 5 mg/kg i.v., 2 min. i.p.) was -94%. The “Muscular blood perfusion half-life” value in the data set with muscular blood perfusion (1 mg/kg i.v.) is 1.10 min; with muscular blood perfusion (5 mg/kg i.v.) it was 3.30 min; with muscular blood perfusion (10 mg/kg i.v.), 2.80 min; in the data set with muscular blood perfusion (20 mg/kg i.v.), more than 15 min. Moreover, the “Muscular blood perfusion Δλ (change of blood perfusion)” value is “+0.02” with muscular blood perfusion (1 mg/kg i.v.), “+0.03” in the data set on muscular blood perfusion (5 mg/kg i.v.), “+0.15” in the data set with muscular blood perfusion (10 mg/kg i.v.) and “+1.38” in the data set on muscular blood perfusion (20 mg/kg i.v.). For the same compound, the “Inhibition of isoprenaline reaction in %” value in the data set with isolated trancheal chain (concentration 3 × 10^-5) amounted to 30%; with isolated trancheal chain (concentration 3 × 10^-6) it was 0%; in the data set on isolated trancheal chain (concentration 10^-4), 89%; in the data set on isolated trancheal chain (concentration 10^-5), 5%. The Vascular dilatory action result in the data set with blood vascular system is listed as “vaso-dilatory effect”. The “Minimum concentration for partial lysis” value with human blood (24 hours incubation) was 100 mmol; in the data set on human blood (48 hours incubation (bracket)), 50 mmol. Besides, in the data set on mouse [7], the Toxicity entry is “low toxicity”.
